Laboratory results as given in US20250296959A1, “B7-H3 TARGETING PEPTIDES AND CONSTRUCTS THEREOF” (Mariana Oncology Inc., priority 2024, published 2025).
Starred links: 1 amine or outer side, 2 acyl side, 3 side chain; linkers in the order of their positions; H or OH if unused. Positions of bridges follow the written chain, without caps; N, C: chain ends. Non-standard residues stand in square brackets, D forms with d. Residues, ends and D or L forms follow the SMILES beside them. Groups on a side chain read outwards from the residue. ξ: configuration not given here. *: point of attachment. X7 = O=C(O)CN1CCN(CC(=O)O)CCN(CC(=O)NCCOCCOCCOCCOCCOCCOCCOCCOCC(=O)*)CCN(CC(=O)O)CC1; X9 = CC(=O)N[C@@H](CCC(C)C)C(O)N([C@@H](Cc1ccc(O)cc1)C(=O)[*:2])[*:1]; Ala(piperidin-4-yl) = O=C([C@H](CC1CCN([*:3])CC1)N[*:1])[*:2]; Phe(3-CH2NH2) = O=C([C@H](Cc1cccc(CN[*:3])c1)N[*:1])[*:2]; DOTA = O=C(O)CN1CCN(CC(=O)O)CCN(CC(=O)*)CCN(CC(=O)O)CC1; NH(CH2CH2O)4CH2CO = O=C(COCCOCCOCCOCCN[*:1])[*:2]; Phe(4-COOH) = N[C@@H](Cc1ccc(C(=O)O)cc1)C(=O)O; Trp(5-F) = N[C@@H](Cc1c[nH]c2ccc(F)cc12)C(=O)O; Trp(7-aza) = N[C@@H](Cc1c[nH]c2ncccc12)C(=O)O; PEG8 = NCCOCCOCCOCCOCCOCCOCCOCCOCCC(=O)O; Phe(4-F) = N[C@@H](Cc1ccc(F)cc1)C(=O)O; γGlu = O=C(O)[C@H](CCC(=O)[*:2])N[*:1]; 1Nal = N[C@@H](Cc1cccc2ccccc12)C(=O)O; Ala(4-THP) = N[C@@H](CC1CCOCC1)C(=O)O; Cha = N[C@@H](CC1CCCCC1)C(=O)O; Tle = CC(C)(C)[C@H](N)C(=O)O; hLeu = CC(C)CC[C@H](N)C(=O)O; ξF = NC(Cc1ccccc1)C(=O)O

target: T1, human 4lg B7-H3 (Homo sapiens, UniProt Q5ZPR3); test: Affinity determination by surface plasmon resonance (SPR) to 4Ig B7-H3; settings: SPR KD—25° C., 4Ig B7-H3; 25° C. flow cell temperature
T1 sequence (Q5ZPR3 29-534): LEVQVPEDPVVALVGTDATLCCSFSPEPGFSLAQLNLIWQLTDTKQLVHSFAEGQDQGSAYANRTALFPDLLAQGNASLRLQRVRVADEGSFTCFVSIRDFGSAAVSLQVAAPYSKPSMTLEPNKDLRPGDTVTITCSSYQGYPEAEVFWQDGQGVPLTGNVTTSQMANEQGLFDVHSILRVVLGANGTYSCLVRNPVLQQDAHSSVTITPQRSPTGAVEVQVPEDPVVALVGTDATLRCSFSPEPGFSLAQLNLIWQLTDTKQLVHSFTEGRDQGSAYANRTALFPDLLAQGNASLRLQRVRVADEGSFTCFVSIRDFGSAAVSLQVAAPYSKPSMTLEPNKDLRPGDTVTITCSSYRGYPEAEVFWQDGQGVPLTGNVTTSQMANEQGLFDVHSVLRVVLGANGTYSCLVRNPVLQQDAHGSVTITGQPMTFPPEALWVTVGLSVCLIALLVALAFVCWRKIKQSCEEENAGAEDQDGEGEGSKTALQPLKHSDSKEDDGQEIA

Kd, < 1 nM:
CC(=O)N[C@@H](CCC(C)C)C(=O)N[C@@H](Cc1ccc(O)cc1)C(=O)N[C@H]1CSSC[C@@H](C(=O)N[C@@H](Cc2cccc3ccccc23)C(=O)N[C@@H](Cc2ccccc2)C(=O)N2CCC[C@H]2C(=O)N[C@H](CCCCNC(=O)CC[C@H](NC(=O)CN2CCN(CC(=O)O)CCN(CC(=O)O)CCN(CC(=O)O)CC2)C(=O)O)C(N)=O)NC(=O)[C@H](Cc2ccc(O)cc2)NC(=O)[C@H](C(C)C)NC(=O)[C@H](CC(=O)O)NC(=O)[C@H](CC2CCOCC2)NC(=O)[C@H](CCCCN)NC(=O)CNC(=O)[C@H](C(C)(C)C)NC1=O [compound 274, Ac-hLeu-Y-C-Tbg-G-K-ThpA-D-V-Y-C-1Nal-F-Pro-dLys(gE-DOTA)-CONH2] (Ac-[hLeu]YC[Tle]GK[Ala(4-THP)]DVYC[1Nal]FP[dK]([γGlu-DOTA])-NH2; disulfide 3-11)
CC(=O)N[C@@H](CCC(C)C)C(=O)N[C@@H](Cc1ccc(O)cc1)C(=O)N[C@H]1CSSC[C@@H](C(=O)N[C@@H](Cc2cccc3ccccc23)C(=O)N[C@@H](Cc2ccccc2)C(=O)N2CCC[C@H]2C(=O)N[C@H](CCCCNC(=O)COCCOCCOCCOCCOCCOCCOCCOCCNC(=O)CN2CCN(CC(=O)O)CCN(CC(=O)O)CCN(CC(=O)O)CC2)C(N)=O)NC(=O)[C@H](Cc2ccc(O)cc2)NC(=O)[C@H](C(C)C)NC(=O)[C@H](CC(=O)O)NC(=O)[C@H](CC2CCOCC2)NC(=O)[C@H](CCCCN)NC(=O)CNC(=O)[C@H](C(C)(C)C)NC1=O [compound 280, Ac-hLeu-Y-C-Tbg-G-K-ThpA-D-V-Y-C-1Nal-F-Pro-dLys(PEG8-DOTA)-CONH2] (Ac-[hLeu]YC[Tle]GK[Ala(4-THP)]DVYC[1Nal]FP[dK](X7)-NH2; disulfide 3-11)

Kd, 1 to 10 nM:
CC(=O)N[C@@H](CCC(C)C)C(=O)N[C@@H](Cc1ccc(O)cc1)C(=O)N[C@H]1CSSC[C@@H](C(=O)N[C@@H](Cc2cccc3ccccc23)C(=O)N[C@@H](Cc2ccccc2)C(=O)N2CCC[C@H]2C(=O)N[C@H](CCCCNC(=O)CC[C@H](NC(=O)CC[C@H](NC(=O)CN2CCN(CC(=O)O)CCN(CC(=O)O)CCN(CC(=O)O)CC2)C(=O)O)C(=O)O)C(N)=O)NC(=O)[C@H](Cc2ccc(O)cc2)NC(=O)[C@H](C(C)C)NC(=O)[C@H](CC(=O)O)NC(=O)[C@H](CC2CCOCC2)NC(=O)[C@H](CCCCN)NC(=O)CNC(=O)[C@H](C(C)(C)C)NC1=O [compound 275, Ac-hLeu-Y-C-Tbg-G-K-ThpA-D-V-Y-C-1Nal-F-Pro-dLys(gE-gE-DOTA)-CONH2] (Ac-[hLeu]YC[Tle]GK[Ala(4-THP)]DVYC[1Nal]FP[dK]([γGlu-γGlu-DOTA])-NH2; disulfide 3-11)
CC(=O)N[C@@H](CCC(C)C)C(=O)N[C@@H](Cc1ccc(O)cc1)C(=O)N[C@H]1CSSC[C@@H](C(=O)N[C@@H](Cc2cccc3ccccc23)C(=O)NC(Cc2ccccc2)C(=O)N2CCC[C@H]2C(=O)N[C@H](CCCCNC(=O)CC[C@H](NC(=O)CC[C@H](NC(=O)CC[C@H](NC(=O)CN2CCN(CC(=O)O)CCN(CC(=O)O)CCN(CC(=O)O)CC2)C(=O)O)C(=O)O)C(=O)O)C(N)=O)NC(=O)[C@H](Cc2ccc(O)cc2)NC(=O)[C@H](C(C)C)NC(=O)[C@H](CC(=O)O)NC(=O)[C@H](CC2CCOCC2)NC(=O)[C@H](CCCCN)NC(=O)CNC(=O)[C@H](C(C)(C)C)NC1=O (stereo partly drawn) [compound 276, Ac-hLeu-Y-C-Tbg-G-K-ThpA-D-V-Y-C-1Nal-F-Pro-dLys(gE-gE-gE-DOTA)-CONH2] (Ac-[hLeu]YC[Tle]GK[Ala(4-THP)]DVYC[1Nal][ξF]P[dK]([γGlu-γGlu-γGlu-DOTA])-NH2; disulfide 3-11)
CC(=O)N[C@@H](CCC(C)C)C(=O)N[C@@H](Cc1ccc(O)cc1)C(=O)N[C@H]1CSSC[C@@H](C(=O)N[C@@H](Cc2cccc3ccccc23)C(=O)NC(Cc2ccccc2)C(=O)N2CCC[C@H]2C(=O)N[C@H](CCCCNC(=O)CC[C@H](NC(=O)CN2CCN(CC(=O)O)CCN(CC(=O)O)CCN(CC(=O)O)CC2)C(=O)O)C(N)=O)NC(=O)[C@H](Cc2ccc(O)cc2)NC(=O)[C@H](C(C)C)NC(=O)[C@H](CC(=O)O)NC(=O)[C@H](CC2CCCCC2)NC(=O)[C@H](CC2CCNCC2)NC(=O)CNC(=O)[C@H](C(C)(C)C)NC1=O (stereo partly drawn) [compound 277, Ac-hLeu-Y-C-Tbg-G-PipAla-CHA-D-V-Y-C-1Nal-F-Pro-dLys(gE-DOTA)-CONH2] (Ac-[hLeu]YC[Tle]G[Ala(piperidin-4-yl)][Cha]DVYC[1Nal][ξF]P[dK]([γGlu-DOTA])-NH2; disulfide 3-11)
CC(=O)N[C@@H](CCC(C)C)C(=O)N[C@@H](Cc1ccc(O)cc1)C(=O)N[C@H]1CSSC[C@@H](C(=O)N[C@@H](Cc2cccc3ccccc23)C(=O)N[C@@H](Cc2ccccc2)C(=O)N2CCC[C@H]2C(=O)N[C@H](CCCCNC(=O)CC[C@H](NC(=O)CC[C@H](NC(=O)CC[C@H](NC(=O)CN2CCN(CC(=O)O)CCN(CC(=O)O)CCN(CC(=O)O)CC2)C(=O)O)C(=O)O)C(=O)O)C(N)=O)NC(=O)[C@H](Cc2ccc(O)cc2)NC(=O)[C@H](C(C)C)NC(=O)[C@H](CC(=O)O)NC(=O)[C@H](CC2CCCCC2)NC(=O)[C@H](CC2CCNCC2)NC(=O)CNC(=O)[C@H](C(C)(C)C)NC1=O [compound 278, Ac-hLeu-Y-C-Tbg-G-PipAla-CHA-D-V-Y-C-1Nal-F-Pro-dLys(gE-gE-DOTA)-CONH2] (Ac-[hLeu]YC[Tle]G[Ala(piperidin-4-yl)][Cha]DVYC[1Nal]FP[dK]([γGlu-γGlu-γGlu-DOTA])-NH2; disulfide 3-11)
CC(=O)N[C@@H](CCC(C)C)C(=O)N[C@@H](Cc1ccc(O)cc1)C(=O)N[C@H]1CSSC[C@@H](C(=O)N[C@@H](Cc2cccc3ccccc23)C(=O)N[C@@H](Cc2ccccc2)C(=O)N2CCC[C@H]2C(N)=O)NC(=O)[C@H](Cc2ccc(O)cc2)NC(=O)[C@H](C(C)C)NC(=O)[C@H](CC(=O)O)NC(=O)[C@H](Cc2cccc(CNC(=O)COCCOCCOCCOCCOCCOCCOCCOCCNC(=O)CN3CCN(CC(=O)O)CCN(CC(=O)O)CCN(CC(=O)O)CC3)c2)NC(=O)[C@H](CCCCN)NC(=O)CNC(=O)[C@H](C(C)(C)C)NC1=O [compound 279, Ac-hLeu-Y-C-Tbg-G-K-MAF(PEG8-DOTA)-D-V-Y-C-1Nal-F-Pro-CONH2] (Ac-[hLeu]YC[Tle]GK[Phe(3-CH2NH2)](X7)DVYC[1Nal]FP-NH2; disulfide 3-11)
CC(=O)N[C@@H](CCC(C)C)C(O)N[C@@H](Cc1ccc(O)cc1)C(=O)N[C@H]1CSSC[C@@H](C(=O)N[C@@H](Cc2cccc3ccccc23)C(=O)N[C@@H](Cc2ccccc2)C(=O)N2CCC[C@H]2C(=O)N[C@H](CCCCNC(=O)COCCOCCOCCOCCOCCOCCOCCOCCNC(=O)CN2CCN(CC(=O)O)CCN(CC(=O)O)CCN(CC(=O)O)CC2)C(N)=O)NC(=O)[C@H](Cc2ccc(O)cc2)NC(=O)[C@H](C(C)C)NC(=O)[C@H](CC(=O)O)NC(=O)[C@H](CC2CCCCC2)NC(=O)[C@H](CC2CCNCC2)NC(=O)CNC(=O)[C@H](C(C)(C)C)NC1=O (stereo partly drawn) [compound 281, Ac-hLeu-Y-C-Tbg-G-PipAla-CHA-D-V-Y-C-1Nal-F-Pro-dLys(PEG8-DOTA)-CONH2] (H-[X9]C[Tle]G[Ala(piperidin-4-yl)][Cha]DVYC[1Nal]FP[dK](X7)-NH2; disulfide 2-10)
CC(C)CC[C@H](NC(=O)CCOCCOCCOCCOCCOCCOCCOCCOCCNC(=O)CN1CCN(CC(=O)O)CCN(CC(=O)O)CCN(CC(=O)O)CC1)C(=O)N[C@@H](Cc1ccc(O)cc1)C(=O)N[C@H]1CSSC[C@@H](C(=O)N[C@@H](Cc2c[nH]c3ccc(F)cc23)C(=O)N[C@@H](Cc2ccccc2)C(=O)N2CCC[C@H]2C(N)=O)NC(=O)[C@H](Cc2ccc(O)cc2)NC(=O)[C@H](C(C)C)NC(=O)[C@H](CC(=O)O)NC(=O)[C@H](Cc2ccc(C(=O)O)cc2)NC(=O)[C@H](CC2CCNCC2)NC(=O)CNC(=O)[C@H](C(C)C)NC1=O [compound 285, DOTA-PEG8-hLeu-Y-C-V-G-PipAla-4COOHPhe-D-V-Y-C-5FW-F-Pro-CONH2] ({DOTA-PEG8}-[hLeu]YCVG[Ala(piperidin-4-yl)][Phe(4-COOH)]DVYC[Trp(5-F)]FP-NH2; disulfide 3-11)

Kd, 10 to 100 nM:
CC(C)CC[C@H](NC(=O)COCCOCCOCCOCCNC(=O)CN1CCN(CC(=O)O)CCN(CC(=O)O)CCN(CC(=O)O)CC1)C(=O)N[C@@H](Cc1ccc(F)cc1)C(=O)N[C@H]1CSSC[C@@H](C(=O)N[C@@H](Cc2cccc3ccccc23)C(=O)N[C@@H](Cc2ccccc2)C(=O)N2CCC[C@H]2C(N)=O)NC(=O)[C@H](Cc2ccc(O)cc2)NC(=O)[C@H](C(C)C)NC(=O)[C@H](CC(=O)O)NC(=O)[C@H](CC2CCOCC2)NC(=O)[C@H](CC2CCNCC2)NC(=O)CNC(=O)[C@H](C(C)(C)C)NC1=O [compound 283, DOTA-PEG4-hLeu-4FPhe-C-Tbg-G-PipAla-ThpA-D-V-Y-C-1Nal-F-Pro-CONH2] ({DOTA}-[NH(CH2CH2O)4CH2CO][hLeu][Phe(4-F)]C[Tle]G[Ala(piperidin-4-yl)][Ala(4-THP)]DVYC[1Nal]FP-NH2; disulfide 4-12)
CC(C)CC[C@H](NC(=O)CC[C@H](NC(=O)CN1CCN(CC(=O)O)CCN(CC(=O)O)CCN(CC(=O)O)CC1)C(=O)O)C(=O)N[C@@H](Cc1c[nH]c2ncccc12)C(=O)N[C@H]1CSSC[C@@H](C(=O)N[C@@H](Cc2cccc3ccccc23)C(=O)N[C@@H](Cc2ccccc2)C(=O)N2CCC[C@H]2C(N)=O)NC(=O)[C@H](Cc2ccc(O)cc2)NC(=O)[C@H](C(C)C)NC(=O)[C@H](CC(=O)O)NC(=O)[C@H](CC2CCOCC2)NC(=O)[C@H](CC2CCNCC2)NC(=O)CNC(=O)[C@H](C(C)(C)C)NC1=O [compound 284, DOTA-gE-hLeu-7AzaW-C-Tbg-G-PipAla-ThpA-D-V-Y-C-1Nal-F-Pro-CONH2] ({DOTA-γGlu}-[hLeu][Trp(7-aza)]C[Tle]G[Ala(piperidin-4-yl)][Ala(4-THP)]DVYC[1Nal]FP-NH2; disulfide 3-11)
